Laboratory results taken from paper PMC5815904 (Circulation research, 2017).

Tests used:
Pannexin 1 (PANX1) [1] = molecular target: T1, Pannexin 1 (PANX1) (Homo sapiens, UniProt Q96RD7); assay: whole-cell patch clamp in apoptotic Jurkat cells; assay type: cell-based
Target sequence in this assay (Q96RD7 whole entry): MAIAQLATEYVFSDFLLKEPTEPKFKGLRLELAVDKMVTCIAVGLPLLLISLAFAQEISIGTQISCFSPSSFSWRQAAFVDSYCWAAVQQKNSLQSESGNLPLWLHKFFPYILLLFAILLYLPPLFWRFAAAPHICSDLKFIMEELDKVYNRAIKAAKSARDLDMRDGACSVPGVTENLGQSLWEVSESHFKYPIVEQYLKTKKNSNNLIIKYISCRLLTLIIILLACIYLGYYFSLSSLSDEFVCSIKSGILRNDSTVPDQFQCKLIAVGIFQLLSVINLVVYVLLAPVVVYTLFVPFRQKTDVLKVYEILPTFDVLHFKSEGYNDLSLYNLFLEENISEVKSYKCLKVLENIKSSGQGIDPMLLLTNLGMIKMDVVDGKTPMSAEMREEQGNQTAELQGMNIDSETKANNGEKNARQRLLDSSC

Pannexin 1 (PANX1) [2] = molecular target: T1, Pannexin 1 (PANX1); assay: whole-cell patch clamp in HEK293T; assay type: cell-based
Target sequence in this assay (Q96RD7 1-379 limits assumed): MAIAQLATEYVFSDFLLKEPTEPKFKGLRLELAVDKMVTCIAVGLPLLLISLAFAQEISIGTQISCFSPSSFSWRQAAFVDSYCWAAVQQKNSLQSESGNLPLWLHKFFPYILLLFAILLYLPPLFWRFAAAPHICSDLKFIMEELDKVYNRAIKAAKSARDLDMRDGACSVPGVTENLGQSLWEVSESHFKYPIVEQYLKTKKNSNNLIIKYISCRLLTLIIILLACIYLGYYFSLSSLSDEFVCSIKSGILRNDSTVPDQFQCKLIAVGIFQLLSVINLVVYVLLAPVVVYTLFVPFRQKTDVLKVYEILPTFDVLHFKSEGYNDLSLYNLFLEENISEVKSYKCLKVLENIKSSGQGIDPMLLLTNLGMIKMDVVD

SMILES | whole-cell patch clamp in apoptotic Jurkat cells (Pannexin 1 (PANX1) [1]) | IC50 (Pannexin 1 (PANX1) [2])
CC1(C)[C@@H](OC(=O)CCC(=O)O)CC[C@]2(C)[C@H]3C(=O)C=C4[C@@H]5C[C@@](C)(C(=O)O)CC[C@]5(C)CC[C@@]4(C)[C@]3(C)CC[C@@H]12 [carbenoxolone] | the current sensitive to spironolactone was fully blocked by carbenoxolone (CBX), a drug known to inhibit PANX1 | –
CC(=O)S[C@@H]1CC2=CC(=O)CC[C@]2(C)[C@H]2CC[C@@]3(C)[C@@H](CC[C@@]34CCC(=O)O4)[C@H]12 [spironolactone] | – | 8.7 ± 1.5 µM
